Assay results taken from PubChem BioAssay (NCI).
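Compound exposure: 48 hours, 5 concentrations, 96-well plates. TGI denotes the concentration required for complete inhibition of growth.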

Key:
Experiment in all cases: growth of human tumour cells (NCI), 48 h
SF-539 CNS = tested on: SF-539 CNS
SF-295 CNS = tested on: SF-295 CNS
RPMI-8226 leukemia = tested on: RPMI-8226 leukemia
K-562 leukemia = tested on: K-562 leukemia
HCC-2998 colon = tested on: HCC-2998 colon
LOX IMVI melanoma = tested on: LOX IMVI melanoma
UO-31 renal = tested on: UO-31 renal
CAKI-1 renal = tested on: CAKI-1 renal
M14 melanoma = tested on: M14 melanoma
NCI-H226 lung = tested on: NCI-H226 lung
T-47D breast = tested on: T-47D breast

Structure (SMILES)	TGI (SF-539 CNS) [µM]	TGI (SF-295 CNS) [µM]	TGI (RPMI-8226 leukemia) [µM]	TGI (K-562 leukemia) [µM]	TGI (HCC-2998 colon) [µM]	TGI (LOX IMVI melanoma) [µM]	TGI (UO-31 renal) [µM]	TGI (CAKI-1 renal) [µM]	TGI (M14 melanoma) [µM]	TGI (NCI-H226 lung) [µM]	TGI (T-47D breast) [µM]
COC(=O)c1cc(S(=O)(=O)NC2=NCC(C)NN2)c(S)cc1Cl (stereo not drawn)	> 100	> 100	> 100	> 100	> 100	> 100	> 100	> 100	> 100		
CCCCCCCCOCC(COC(=O)CCCCCCC)OC(=O)CCCCCCC (stereo not drawn)		> 100	> 100	> 100	> 100	> 100	> 100	> 100	> 100	> 100	
Cc1ccc(N=N/C(=N/NC(=O)c2ccccc2)c2ccc(N(CCC#N)CCC#N)cc2C)cc1	64.7	> 100	> 100	> 100	> 100		> 100	> 100	> 100	> 100	> 100
O=S(=O)(/N=C(\NO)Nc1ccc(Cl)cc1)c1cc(C(F)(F)F)cc(C(F)(F)F)c1	46.6	36.4		90.4		34.2		32.2	32.1	35.9	67.2
CCOC(=O)C1(C/C=C\CBr)CCCC1=O (stereo not drawn)	44.9	> 100				31.2	59.5	> 100	75.1	88.6	94.3
CC(C)(C)OC(=O)N(CCCCNC(=O)C(F)(F)F)CCCNC(=O)C(F)(F)F	> 100	> 100	> 100	> 100	> 100		> 100	> 100	> 100	> 100	> 100
O=C(c1ccccc1)C1(Br)S(=O)(=O)OCCOS1(=O)=O	> 100	> 100	> 100	> 100	> 100	> 100	> 100		> 100	> 100	
C=CCC(CCC(C)=O)(C(=O)OCC)C(=O)OCC	> 100	> 100	> 100	> 100	> 100		> 100	> 100	> 100	> 100	> 100
O=C(c1ccc(Cl)cc1)N(C(=O)N1CCCCC1)c1ccccc1	> 100		> 100	> 100		> 100	> 100	> 100	> 100	> 100	89
NNc1nnc(CCCCCCCCc2nnc(NN)n2N)n1N	> 100	> 100		> 100	> 100	> 100	> 100	> 100	> 100	> 100	
Cc1cc(C)c(-c2no/c(=N\S(=O)(=O)c3ccc(Cl)cc3)o2)c(C)c1	> 100	> 100	> 100	> 100	> 100		> 100	> 100	> 100	> 100	> 100
CCOC(=O)C1S(=O)(=O)OCCOS1(=O)=O	> 100	> 100	> 100	> 100	> 100	> 100	> 100	> 100	> 100		
CC(C)(CN1CCCCC1)C(=O)/C=C/c1ccc(Br)cc1	4.96	17.4	> 27.1	8.95	31.7	4.63	> 24.7	3.71	4.75	15.7	
CCN1/C(=C/C#C/C(C)=C\c2sc3ccc(Cl)cc3[n+]2CC)Sc2ccc(Cl)cc21	16.1	14.9			17.6	14.6	14.5	7.13	16.1	21.9	17.6
O=c1[nH]c(N/N=C\C(O)C(O)C(O)C(O)CO)nc2ccccc12 (stereo not drawn)	> 100	> 100	> 100	> 100		> 100	> 100	> 100	> 100	> 100	> 100
Cc1cccc2sc(NC(=O)NS(=O)(=O)n3cnc4ccccc43)nc12	78	50.1	84.3		30.3		61.5	> 100	> 100	> 100	62.6
Cc1cc(N(CCC#N)CCC#N)ccc1/C(N=Nc1ccccc1)=N\NC(=O)c1cc(Cl)ccc1O	58.3	> 100	> 100	> 100	31.8		41.3	> 100	> 100	> 100	55.9
